Assay results taken from patent US20110053925A1, “Hydroxamate-Based Inhibitors of Deacetylases” (Novartis AG, priority 2009, published 2011).

What follows are molecules tested against T1, HDAC-1 (Homo sapiens, UniProt Q13547) (assay: HDAC Inhibition Assay (purified GST-HDAC protein)).
T1 construct: made in house; host or cells: Sf9 or Sf21 insect cells (baculovirus, donor vector pFB-GSTX3)
Format: biochemical
Excerpt: The baculovirus donor vector pFB-GSTX3 is used to generate a recombinant baculovirus that can express the HDAC polypeptide. Transfer vectors containing the HDAC coding region are transfected into the DH10Bac cell line (GIBCO) and plated on selective agar plates. Colonies without insertion of the fusion sequence into the viral genome (carried by the bacteria) are blue. Single, white colonies are picked and viral DNAs (bacmid) are isolated from the bacteria by standard plasmid purification procedures. Sf9 cells or Sf21 (American Type Culture Collection) cells are then transfected in […] flasks with the viral DNA using Cellfectin reagent.
Virus-containing media is collected from the transfected cell culture and used for infection to increase its titer. Virus-containing media obtained after two rounds of infection is used for large-scale protein expression. For large-scale protein expression 100 cm^2 round tissue culture plates are seeded with 5×10^7 cells/plate and infected with 1 mL of virus-containing media (at an approximately MOI of 5). After 3 days, the cells are scraped off the plate and centrifuged at 500 rpm for 5 minutes. Cell pellets from 10-20, 100 cm^2 plates, are re-suspended in 50 mL of ice-cold lysis buffer (25 mM tris-HCl, pH 7.5, 2 mM EDTA, 1% NP-40, 1 mM DTT, 1 mM P MSF). The cells are stirred on ice for 15 minutes and then centrifuged at 5,000 rpms for 20 minutes.
The centrifuged cell lysate is loaded onto a 2 mL glutathione-sepharose column (Pharmacia) and is washed thrice with 10 mL of 25 mM tris-HCl, pH 7.5, 2 mM EDTA, 1 mM DTT, 200 mM NaCl. The GST-tagged proteins are then eluted by 10 applications (1 mL each) of 25 mM tris-HCl, pH 7.5, 10 mM reduced-glutathione, 100 mM NaCl, 1 mM DTT, 10% glycerol and stored at −70° C.
HDAC assays with purified GST-HDAC protein are carried out in a final volume of 30 μL containing 15 ng of GST-HDAC protein, 20 mM tris-HCl, pH 7.5, 1 mM MnCl2, 10 mM MgCl2, 1 mM DTT, 3 μg/mL poly(Glu,Tyr) 4:1, 1% DMSO, 2.0 μM ATP (γ-[^33P]-ATP 0.1 μCi). The activity is assayed in the presence or absence of inhibitors. […] Subsequently, […] of the reaction mixture are transferred onto EMMOBILON-PVDF membrane (Millipore) previously soaked for 5 minutes with methanol, rinsed with water, then soaked for 5 minutes with 0.5% H3PO4 and mounted on vacuum manifold with disconnected vacuum source. After spotting all samples, a vacuum is connected and each well rinsed with 200 μL 0.5% H3PO4. Membranes are removed and washed four times on a shaker with 1.0% H3PO4, once with ethanol. Membranes are counted after drying at ambient temperature, mounting in Packard TopCount 96-well frame, and addition of 10 μL/well of MICROSCINT™ (Packard).
• Input: 3×4 μL stopped assay on IMMOBILON membrane, not washed • Background (3 wells): assay with H2O instead of enzyme • Positive control (4 wells): 3% DMSO instead of compound • Bath control (1 well): no reaction mix
In each experiment, the actual inhibition by reference compound is used for normalization of IC50 values to the basis of an average value of the reference inhibitor:
Normalized IC50=measured IC50 average ref. IC50/measured ref. IC50

T1 sequence (Q13547 whole entry, species assumed): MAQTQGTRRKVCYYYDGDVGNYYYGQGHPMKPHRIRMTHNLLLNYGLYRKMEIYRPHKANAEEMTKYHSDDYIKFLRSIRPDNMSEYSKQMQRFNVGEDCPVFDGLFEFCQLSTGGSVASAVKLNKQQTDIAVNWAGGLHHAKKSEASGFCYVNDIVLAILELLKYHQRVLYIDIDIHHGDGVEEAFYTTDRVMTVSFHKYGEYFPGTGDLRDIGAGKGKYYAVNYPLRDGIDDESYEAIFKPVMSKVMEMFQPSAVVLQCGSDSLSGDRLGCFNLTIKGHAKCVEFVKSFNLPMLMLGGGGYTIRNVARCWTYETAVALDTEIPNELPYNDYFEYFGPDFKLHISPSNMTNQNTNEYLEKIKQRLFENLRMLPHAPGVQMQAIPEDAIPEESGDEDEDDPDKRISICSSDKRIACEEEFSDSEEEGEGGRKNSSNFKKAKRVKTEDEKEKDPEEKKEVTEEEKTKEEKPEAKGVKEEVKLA

| IC50 [nM] | Compound |
| --- | --- |
| 100 | O=C(/C=C/c1ccc(CN2CCN(Cc3ccccc3)CC2)cc1)NO [Compound 26, (E)-3-[4-(4-Benzyl-piperazin-1-ylmethyl)-phenyl]-N-hydroxy-acrylamide] |
| 130 | O=C(/C=C/c1ccc(CN2CCN(Cc3ccc(Br)cc3)CC2)cc1)NO [Compound 27, (E)-3-{4-[4-(4-Bromo-benzyl)-piperazin-1-ylmethyl]-phenyl}-N-hydroxy-acrylamide] |
| 170 | CCOC(=O)N1CCN(Cc2ccc(/C=C/C(=O)NO)cc2)CC1 [Compound 28, 4-[4-((E)-2-Hydroxycarbamoyl-vinyl)-benzyl]-piperazine-1-carboxylic acid ethyl ester] |
| 170 | Cn1c(N2CCN(Cc3ccc(/C=C/C(=O)NO)cc3)CC2)cccc1=O [Compound 30, (E)-N-Hydroxy-3-{4-[4-(1-methyl-6-oxo-1,6-dihydro-pyridin-2-yl)-piperazin-1-ylmethyl]-phenyl}-acrylamide] |
| 100 | O=C(/C=C/c1ccc(CN2CCCCC2)cc1)NO [Compound 33, (E)-N-Hydroxy-3-(4-piperidin-1-ylmethyl-phenyl)-acrylamide] |
| 50 | O=C(/C=C/c1ccc(CN2CCC(N3CCNC3=O)CC2)cc1)NO [Compound 44, (E)-N-Hydroxy-3-{4-[4-(2-oxo-imidazolidin-1-yl)-piperidin-1-ylmethyl]-phenyl}-acrylamide] |
| 300 | O=C(/C=C/c1ccc(CN2CCOCC2)cc1)NO [Compound 47, (E)-N-Hydroxy-3-(4-morpholin-4-ylmethyl-phenyl)-acrylamide] |
| 130 | O=C(/C=C/c1ccc(CN2CCC3(CC2)OCCO3)cc1)NO [Compound 48, (E)-3-[4-(1,4-Dioxa-8-aza-spiro[4.5]dec-8-ylmethyl)-phenyl]-N-hydroxy-acrylamide] |
| 37 | O=C(/C=C/c1ccc(CN2CCC(Cc3ccccc3)CC2)cc1)NO [Compound 49, (E)-3-[4-(4-Benzyl-piperidin-1-ylmethyl)-phenyl]-N-hydroxy-acrylamide] |
| 110 | O=C(/C=C/c1ccc(CN2CCN(C(=O)c3ccccc3)CC2)cc1)NO [Compound 51, (E)-3-[4-(4-Benzoyl-piperazin-1-ylmethyl)-phenyl]-N-hydroxy-acrylamide] |
| 350 | CCC(=O)N1CCN(Cc2ccc(/C=C/C(=O)NO)cc2)CC1 [Compound 52, (E)-N-Hydroxy-3-[4-(4-propionyl-piperazin-l-ylmethyl)-phenyl]-acrylamide] |
| 160 | CC(C)(C)CC(=O)N1CCN(Cc2ccc(/C=C/C(=O)NO)cc2)CC1 [Compound 53, (E)-3-{4-[4-(3,3-Dimethyl-butyryl)-piperazin-1-ylmethyl]-phenyl}-N-hydroxy-acrylamide] |
| 130 | O=C(/C=C/c1ccc(CN2CCN(C(=O)C3CCCCC3)CC2)cc1)NO [Compound 54, (E)-3-[4-(4-Cyclohexanecarbonyl-piperazin-1-ylmethyl)-phenyl]-N-hydroxy-acrylamide] |

Second part, the molecule before the results:

| Compound | IC50 [nM] |
| --- | --- |
| O=C(CCc1ccc(CN2CCCC(c3c(-c4ccccc4)[nH]c4ccccc34)C2)cc1)NO (centres unmarked) [Compound 16, N-Hydroxy-3-{4-[3-(2-phenyl-1H-indol-3-yl)-piperidin-1-ylmethyl]-phenyl}-propionamide] | 2.2 |
| CC1(C)c2[nH]c3ccccc3c2CCN1Cc1ccc(/C=C/C(=O)NO)cc1 [Compound 22, (E)-3-[4-(1,1-Dimethyl-1,3,4,9-tetrahydro-beta-carbolin-2-ylmethyl)-phenyl]-N-hydroxy-acrylamide] | 150 |
| O=C(/C=C/c1ccc(CN2CCOC(c3nc(-c4ccccc4)no3)C2)cc1)NO (centres unmarked) [Compound 25, (E)-N-Hydroxy-3-{4-[2-(3-phenyl-[1,2,4]oxadiazol-5-yl)-morpholin-4-ylmethyl]-phenyl}-acrylamide] | 39 |
| O=C(/C=C/c1ccc(CN2CCN(C(=O)OCc3ccccc3)CC2)cc1)NO [Compound 29, 4-[4-((E)-2-Hydroxycarbamoyl-vinyl)-benzyl]-piperazine-1-carboxylic acid benzyl ester] | 140 |
| O=C(/C=C/c1ccc(CN2CCN(c3nc4ccccc4n3C(=O)c3ccccc3)CC2)cc1)NO [Compound 31, (E)-3-{4-[4-(1-Benzoyl-1H-benzoimidazol-2-yl)-piperazin-1-ylmethyl]-phenyl}-N-hydroxy-acrylamide] | 231 |
| O=C(/C=C/c1ccc(CN2CCC3(CC2)OC(=O)Nc2ccccc23)cc1)NO [Compound 34] | 32 |
| O=C(/C=C/c1ccc(CN2CCC(c3cc4ccccc4o3)CC2)cc1)NO [Compound 35, (E)-3-[4-(4-Benzofuran-2-yl-piperidin-1-ylmethyl)-phenyl]-N-hydroxy-acrylamide] | 46 |
| COc1cc(Br)c2oc(C3CCN(Cc4ccc(/C=C/C(=O)NO)cc4)CC3)cc2c1 [Compound 36, (E)-3-{4-[4-(7-Bromo-5-methoxy-benzofuran-2-yl)-piperidin-1-ylmethyl]-phenyl}-N-hydroxy-acrylamide] | 500 |
| O=C(/C=C/c1ccc(CN2CCC3(CC2)NC(=O)N(CC2CC2)C3=O)cc1)NO [Compound 37, (E)-3-[4-(3-Cyclopropylmethyl-2,4-dioxo-1,3,8-triaza-spiro[4.5]dec-8-ylmethyl)-phenyl]-N-hydroxy-acrylamide] | < 430 |
| O=C(/C=C/c1ccc(CN2CCC3(CCc4ccccc4O3)CC2)cc1)NO [Compound 38, (E)-N-Hydroxy-3-(4-(spiro[chroman-2,4′-piperidine]-1′-ylmethyl)phenyl)acrylamide] | 110 |
| CS(=O)(=O)N1CC2(CCN(Cc3ccc(/C=C/C(=O)NO)cc3)CC2)c2ccccc21 [Compound 39] | 27 |
| O=C(/C=C/c1ccc(CN2CCC(c3ccc(Cl)cc3CN3CCCC3=O)CC2)cc1)NO [Compound 40, (E)-3-(4-{4-[4-Chloro-2-(2-oxo-pyrrolidin-1-ylmethyl)-phenyl]-piperidin-1-ylmethyl}-phenyl)-N-hydroxy-acrylamide] | 27 |
| O=C(/C=C/c1ccc(CN2CCC(N3CCc4ccccc4C3=O)CC2)cc1)NO [Compound 41, (E)-N-Hydroxy-3-{4-[4-(1-oxo-3,4-dihydro-1H-isoquinolin-2-yl)-piperidin-1-ylmethyl]-phenyl}-acrylamide] | 16 |
| CC(=O)N(C)CC1(c2ccccc2)CCN(Cc2ccc(/C=C/C(=O)NO)cc2)CC1 [Compound 42, (E)-3-(4-{4-[(Acetyl-methyl-amino)-methyl]-4-phenyl-piperidin-1-ylmethyl}-phenyl)-N-hydroxy-acrylamide] | 70 |
| CN1C(=O)C2(CCN(Cc3ccc(/C=C/C(=O)NO)cc3)CC2)c2ccccc21 [Compound 43, (E)-N-Hydroxy-3-(4-((1-methyl-2-oxospiro[indoline-3,4′-piperidine]-1′-yl)methyl)phenyl)acrylamide] | 24 |
| O=C(/C=C/c1ccc(CN2CCC(CC(=O)NO)(c3ccc(Cl)cc3)CC2)cc1)NO [Compound 45, (E)-3-{4-[4-(4-Chloro-phenyl)-4-hydroxycarbamoylmethyl-piperidin-1-ylmethyl]-phenyl}-N-hydroxy-acrylamide] | 110 |
| O=C(/C=C/c1ccc(CN2CCN(S(=O)(=O)c3ccccc3)CC2)cc1)NO [Compound 50, (E)-3-[4-(4-Benzenesulfonyl-piperazin-1-ylmethyl)-phenyl]-N-hydroxy-acrylamide] | 230 |
| Cc1ccc(S(=O)(=O)N2CCN(Cc3ccc(/C=C/C(=O)NO)cc3)CC2)cc1 [Compound 55, (E)-N-Hydroxy-3-{4-[4-(toluene-4-sulfonyl)-piperazin-1-ylmethyl]-phenyl}-acrylamide] | 230 |
| Cc1cccc(S(=O)(=O)N2CCN(Cc3ccc(/C=C/C(=O)NO)cc3)CC2)c1 [Compound 56, (E)-N-Hydroxy-3-{4-[4-(toluene-3-sulfonyl)-piperazin-1-ylmethyl]-phenyl}-acrylamide] | 260 |
